From patent US6406679B1, “Use of HL-60-related lectins in drug delivery and detection of lectin-expressing cells” (Incyte Pharmaceuticals, Inc., priority 1992, dated 2002)
Where “and” joins values, the source holds several entries; their conditions need not be identical. Equal entries are not always repeated.

Legend:
[1] = tested on: Jurkat T-cells on inflamed rat brain vascular endothelium; test: Binding to inflamed brain endothelium sections; type: cell-based, human; details: 250 μg/ml lectin
Human blood cells = test: Staining of lectin-pretreated human blood cells with fluoresceinated antibodies (histogram analyses); type: cell-based
From the text: Human blood cells were pretreated with the inventive HL-60 lectin and then stained with fluoresceinated antibody having several different specificities. Control cells were not pretreated with lectin. […] However, the effect of lectin treatment on M1 and M3 macrophages was significant.

Spleen Cells = test: In vivo effect of lectin on phenotypes of lymphocytes (antibody staining); parameters: species or system rat; details: for % positive / F^L / % CHANGE IN POSITIVES: Spleen Cells
Lewis rat = test: Experimental autoimmune encephalomyelitis (EAE) induced with GPBP/CFA; type: in vivo
From the text: Experimental autoimmune encephalomyelitis (EAE) is a T-cell-mediated disease considered to be a useful model for human paralytic and demyelinating diseases such as multiple sclerosis (Vandenbark, A. et al., J. Immunol. (1985) 135:223). In the Lewis rat, paralytic signs of EAE are induced about 14 days after injecting guinea pig myelin basic protein (GPBP) in Complete Freund's Adjuvant (CFA). It has been shown by Offner, H. et al. (J. Immunol. (1988) 141:3288) that T-cells specific for GPBP in immunized rats recognize amino acid residues 72-89 of GPBP and have the ability to transfer both clinical signs of EAE and delayed-type hypersensitivity reaction to GPBP to other animals.
In the studies reported in this example, EAE was induced by injection of GPBP/CFA as described above.
In one protocol intravenous administration of lectin was started at day 0 relative to 50 μg GPBP/CFA injection, with additional lectin treatment at days 3 and 6. The severity of the disease was determined clinically and histologically:
“Clinical” Ratings are as Follows:
3=Hind quarter paralysis.
“Histologic” Ratings are as Follows:
Slides were examined for degree of inflammation with ratings as follows:
0.5=a few infiltrating cells in the meninges;
1=meningeal infiltration, more organized and concentrated around blood vessels;
2-4=increasing intensity of meningeal infiltration and perivascular cuffing in the CNS parenchyma.
In a second protocol, lectin was first administered three days before immunization with 50 μg GPBP/CFA and was followed by daily injections until day 7 after immunization.
In an additional experiment, animals were given various doses of lectin on days 0-12, following the administration of 10 μg GPBP injected intramuscularly.

lymph node cells = test: Proliferative response of draining lymph node cells of GPBP/CFA-injected rats; type: in vivo, rat
Experimental: At the indicated times after injection of 50 μg GPBP/CFA, lymph nodes draining the site of injection were collected and tested for a proliferative response to GPBP, purified protein derivative (PPD), and the T-cell mitogen, Concanavalin A (ConA). Consistent with the DTH test, lymph node cells of the lectin-treated rats had low or absent responses to both GPBP and PPD relative to control rats, especially on days 14 and 21 during which EAE onset occurs.

[2] = tested on: human T-cells of the Jurkat line; test: Agglutination of cells treated with lectin; type: cell-based; details: 250 μg/ml lectin, on ice 30 min
Experimental: (§1) To analyze the mechanism of action of the inventive lectins as immunomodulators, a test was devised to discover whether these lectins bind lymphocytes and/or T-cells to endothelial cells. Thin sections of tissue containing inflamed rat brain vascular endothelium were prepared. Rat lymph node lymphocytes and human T-cells of the Jurkat line (10^7/ml in Dulbecco's modified Eagle medium (MEM) with 5% fetal bovine serum (FBS)) were treated with 250 μg/ml of the lectin of Example 1, with the lectin plus 1 mM beta-lactose, or with no additions and subsequently were placed on ice for 30 min. […] These effects were not observed when beta-lactose was added or when there were no additions.

[3] = tested on: Rat lymph node lymphocytes; test: Agglutination of cells treated with lectin; type: cell-based; details: 250 μg/ml lectin, on ice 30 min
Experimental: as §1

[4] = HLA-DR, lectin-pretreated cells
[5] = NK(L-A), lectin-pretreated cells
[6] = antibody IgG, lectin-treated rats
[7] = 250 μg lectin Days −3 to 6 daily
[8] = 250 μg lectin Days −3 to 6 daily, background subtracted
[9] = 250 μg lectin Days −3 to 6 daily, scale 0-4

“Lectin: Soluble 14 kD β-galactoside-binding HL-60/placenta lectin of FIG. 1 (SEQ ID NO:2), prepared recombinantly in E. coli” was tested, and the “Binding to Inflamed Brain Endothelium” value [1] was “did not bind”, the “+FL1” value (Human blood cells; CD3+, lectin-pretreated cells) was 458 and the “+mode” value (Human blood cells; CD3+, lectin-pretreated cells) was 416. The percent (Human blood cells; CD3+, lectin-pretreated cells) was 77.8%, the “+FL1” value (Human blood cells; CD4+, lectin-pretreated cells) was 181.5 and the “+mode” value (Human blood cells; CD4+, lectin-pretreated cells) was 151. For the same substance, the percent (Human blood cells; CD4+, lectin-pretreated cells) was 46.4%, the “+FL1” value (Human blood cells; [4]) was 614 and the “+mode” value (Human blood cells; [4]) was 432. The percent (Human blood cells; [4]) was 13.3%, the “+FL1” value (Human blood cells; M1, lectin-pretreated cells) was 403 and the “+mode” value (Human blood cells; M1, lectin-pretreated cells) was 387. For the same substance, the percent (Human blood cells; M1, lectin-pretreated cells) was 46.1%, the “reduction of the percent of positive cells” value (Human blood cells; M1 macrophages, lectin vs control) was 33% and the “+FL1” value (Human blood cells; M3, lectin-pretreated cells) was 549. The “+mode” value (Human blood cells; M3, lectin-pretreated cells) was 517, the percent (Human blood cells; M3, lectin-pretreated cells) was 45.1% and the “reduction of the percent of positive cells” value (Human blood cells; M3 macrophages, lectin vs control) was 26%. For the same substance, the “+FL1” value (Human blood cells; [5]) was 106, the “+mode” value (Human blood cells; [5]) was 94.7 and the percent (Human blood cells; [5]) was 10.8%. For the same substance, the “changes for CD3+, CD4+, NK(L-A) or HLA-DR cell markers” value (Human blood cells; lectin vs control) was “No significant changes”, the “% positive” value (Spleen Cells; antibody 0X6) was 15.6% and the “F^L” value (Spleen Cells; antibody 0X6) was 375. For the same substance, the “% CHANGE IN POSITIVES” value (Spleen Cells; antibody 0X6, lectin vs control) was 0%, the “% positive” value (Spleen Cells; antibody 0X8) was 41.2% and the “F^L” value (Spleen Cells; antibody 0X8 (suppressor T-cells)) was 323. The “% CHANGE IN POSITIVES” value (Spleen Cells; antibody 0X8, lectin vs control) was “+32%”, the “% positive” value (Spleen Cells; antibody 0X12) was 15.4% and the “F^L” value (Spleen Cells; antibody 0X12) was 363. For the same substance, the “% CHANGE IN POSITIVES” value (Spleen Cells; antibody 0X12, lectin vs control) was 0%, the “% positive” value (Spleen Cells; [6]) was 24.3% and the “F^L” value (Spleen Cells; [6]) was 129. For the same substance, the “% positive” value (Spleen Cells; antibody W3/13) was 85.9%, the “F^L” value (Spleen Cells; antibody W3/13 (total T-cells)) was 311 and the “% CHANGE IN POSITIVES” value (Spleen Cells; antibody W3/13, lectin vs control) was −19%. For the same substance, the “% positive” value (Spleen Cells; antibody W3/25) was 67.2%, the “F^L” value (Spleen Cells; antibody W3/25 (helper T-cells)) was 161 and the “% CHANGE IN POSITIVES” value (Spleen Cells; antibody W3/25, lectin vs control) was −24%. The “decrease in the numbers of spleen helper T-cells (w3/25 antibody reactive)” value (Spleen Cells; lectin-treated animals) was 19%, the “decrease in the numbers of spleen total T-cells (w3/13 antibody reactive)” value (Spleen Cells; lectin-treated animals) was 24% and the “increase in the number of spleen suppressor T-cells” value (Spleen Cells; lectin-treated animals) was 32%. The “Duration” value (Lewis rat; 250 μg lectin Days 0, 3, 6) was 3.0 days and 3 days, the “Loss of Weight” value (Lewis rat; 250 μg lectin Days 0, 3, 6) was 20 g and the “Severity of Disease, Histological Rating” value (Lewis rat; 250 μg lectin Days 0, 3, 6, scale 0-4) was 3.5. The “Duration (days)” value (Lewis rat; [7]) was 0^3 days, the “Loss of Weight (g)” value (Lewis rat; [7]) was “None^3” and the “GPBP DTH (delayed type hypersensitivity reaction, swelling)” value (Lewis rat; [8]) was 9 mm/100. The “PPD DTH (delayed type hypersensitivity reaction, swelling)” value (Lewis rat; [8]) was 4 mm/100, the “Clinical Severity of Disease” value (Lewis rat; [9]) was 0^3/ and the “Histologic Severity of Disease” value (Lewis rat; [9]) was 0.50^3. For the same substance, the “Day of Onset” value (Lewis rat; 250 μg lectin i.v. Days 0, 3, 6, 50 μg GPBP/CFA) was 17 days, the “daily dosage optimal for ameliorating the symptoms” value (Lewis rat; 10-1500 μg intraperitoneally days 0-12, 10 μg GPBP, FIGS. 10 and 11) was 500 µg and the “development of the disease (EAE)” value (Lewis rat; lectin from three days before immunization, daily until day 7) was “prevented completely”. The “lymph node cell proliferative responses to GPBP and PPD” value (lymph node cells; lectin-treated rats relative to control, especially days 14 and 21, FIG. 12) was “low or absent”, the “lymph node cell responses to ConA” value (lymph node cells; lectin-treated rats, FIG. 12) was “normal or augmented” and the “Agglutination of T-cells” value [2] was “severely agglutinated”. The “Clumping of rat lymphocytes” value [3] was “moderately clumped”.
